Source: patent US11414395B2, “Heterocyclic compounds as modulators of mGluR7” (PRAGMA Therapeutics, priority 2017, dated 2022)

Biological target: human mGluR7 (Homo sapiens (Human), UniProt Q14831)
Assay: Inositol monophosphate production assay (IP1 assay), inhibition of L-AP4 response
Assay type: cell-based
Conditions: mean IC50 from at least two independent experiments; HEK293 cells transiently transfected with mGluR7, Gqtop and EAAC1; IP1 production vs EC80 L-AP4
Text: Inositol Monophosphate Production Assay (IP1 Assay):
HEK293 cells were transiently transfected with mGluR7 by electroporation and seeded in a poly-ornithine coated 96-well plate at the density of 150 000 cells/well. To allow the monitoring of receptor activity through measurements of inositol monophosphate (IP1) production, mGluR7 was transfected with a chimeric Gq/Gi protein (Gqtop). and was also co-transfected with EAAC1, a glutamate transporter, to avoid influence of extracellular glutamate. Cells were cultured in Dulbecco's Modified Eagle Medium (DMEM, Invitrogen, Cergy Pontoise, France), supplemented with 10% of Fetal Bovine Serum (FBS). Medium was changed by Glutamax™ (Invitrogen, Cergy Pontoise, France) to reduce extracellular glutamate concentration 3 hours before stimulation
IP1 production was determined using the IP-One HTRF kit (CisBio Bioassays), a competitive immunoassay using cryptate-labeled anti-IP1 antibody and d2-labeled IP, according to the manufacturer's recommendations. All points were realized in triplicate.
Data were analyzed with Prism 6 software (GraphPadSoftware, San Diego, Calif.). Typically, in each experiment, a four-parameter concentration-response curve equation was used to fit data and potency (IC50) is estimated as logarithms (log IC50). Data were calculated as % of the control mGluR7 agonist L-AP4 response, defined as the response that is generated upon addition of an EC80-equivalent concentration of L-AP4.
The Table 2 below represents the mean IC50 obtained from at least two independent experiments.

Chain of human mGluR7 (Q14831 35-915): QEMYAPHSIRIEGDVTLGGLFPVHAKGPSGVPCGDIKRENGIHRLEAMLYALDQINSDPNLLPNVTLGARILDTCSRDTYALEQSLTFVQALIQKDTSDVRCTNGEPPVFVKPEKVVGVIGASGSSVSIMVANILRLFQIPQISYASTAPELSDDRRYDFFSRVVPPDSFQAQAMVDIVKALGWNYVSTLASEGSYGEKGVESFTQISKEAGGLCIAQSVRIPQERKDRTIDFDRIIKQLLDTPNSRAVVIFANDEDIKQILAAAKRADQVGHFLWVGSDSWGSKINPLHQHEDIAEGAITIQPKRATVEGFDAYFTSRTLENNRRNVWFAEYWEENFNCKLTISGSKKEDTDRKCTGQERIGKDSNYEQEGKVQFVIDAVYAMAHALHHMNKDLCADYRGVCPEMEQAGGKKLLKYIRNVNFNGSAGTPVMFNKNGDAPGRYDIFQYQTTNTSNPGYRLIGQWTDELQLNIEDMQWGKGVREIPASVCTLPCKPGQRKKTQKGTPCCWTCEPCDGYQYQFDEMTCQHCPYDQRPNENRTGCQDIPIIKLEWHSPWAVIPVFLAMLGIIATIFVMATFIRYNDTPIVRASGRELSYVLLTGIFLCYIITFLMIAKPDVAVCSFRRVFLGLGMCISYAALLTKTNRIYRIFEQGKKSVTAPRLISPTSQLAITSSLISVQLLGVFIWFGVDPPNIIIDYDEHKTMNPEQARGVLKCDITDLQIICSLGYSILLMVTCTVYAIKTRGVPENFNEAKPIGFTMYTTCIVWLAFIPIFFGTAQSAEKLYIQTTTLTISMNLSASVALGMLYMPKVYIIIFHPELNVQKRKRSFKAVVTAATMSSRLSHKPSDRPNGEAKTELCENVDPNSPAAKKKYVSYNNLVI

| SMILES | IC50 [nM] |
| --- | --- |
| Cc1ccc(C2CCc3c(cnn(-c4ncccc4C)c3=O)C2)c(C)c1 (stereo not shown) [Example 20, 6-(2,4-dimethylphenyl)-2-(3-methylpyridin-2-yl)-5,6,7,8-tetrahydrophthalazin-1(2H)-one] | < 500 |
| COc1cccc(C2CCc3c(cnn(-c4ccccn4)c3=O)C2)c1C (stereo not shown) [Example 60, 6-(3-methoxy-2-methylphenyl)-2-(pyridin-2-yl)-5,6,7,8-tetrahydrophthalazin-1(2H)-one] | < 500 |
| CCOc1cccc(C2CCc3c(cnn(-c4ncccn4)c3=O)C2)c1C (stereo not shown) [Example 101, 6-(3-ethoxy-2-methylphenyl)-2-(pyrimidin-2-yl)-5,6,7,8-tetrahydrophthalazin-1(2H)-one] | < 500 |
| COCc1cccc(C2CCc3c(cnn(-c4ncccn4)c3=O)C2)c1 (stereo not shown) [Example 83, 6-(3-(methoxymethyl)phenyl)-2-(pyrimidin-2-yl)-5,6,7,8-tetrahydrophthalazin-1(2H)-one] | 500 to 1000 |
| Cc1ccc(C2CCc3c(cnn(-c4cccnc4)c3=O)C2)c(C)c1 (stereo not shown) [Example 28, 6-(2,4-dimethylphenyl)-2-(pyridin-3-yl)-5,6,7,8-tetrahydrophthalazin-1(2H)-one] | < 500 |
| COc1ccc(F)c(C2CCc3c(cnn(-c4ncccn4)c3=O)C2)c1F (stereo not shown) [Example 90, 6-(2,6-difluoro-3-methoxyphenyl)-2-(pyrimidin-2-yl)-5,6,7,8-tetrahydrophthalazin-1(2H)-one] | < 500 |
| CC(=O)c1ccc(C2CCc3c(cnn(-c4ncccn4)c3=O)C2)c(C)c1 (stereo not shown) [Example 99, 6-(4-acetyl-2-methylphenyl)-2-(pyrimidin-2-yl)-5,6,7,8-tetrahydrophthalazin-1(2H)-one] | 1000 to 30000 |
| Cc1ccc(C2CCc3c(cnn(-c4nccs4)c3=O)C2)c(C)c1 (stereo not shown) [Example 32, 6-(2,4-dimethylphenyl)-2-(thiazol-2-yl)-5,6,7,8-tetrahydrophthalazin-1(2H)-one] | 500 to 1000 |
| Cc1ccc(C2CCc3c(cnn(-c4ncccc4C#N)c3=O)C2)c(C)c1 (stereo not shown) [Example 24, 2-(6-(2,4-dimethylphenyl)-1-oxo-5,6,7,8-tetrahydrophthalazin-2(1H)-yl)nicotinonitrile] | < 500 |
| O=c1c2c(cnn1-c1ncccn1)CC(c1cccc(OC3CCCC3)c1)CC2 (stereo not shown) [Example 86, 6-(3-(cyclopentyloxy)phenyl)-2-(pyrimidin-2-yl)-5,6,7,8-tetrahydrophthalazin-1(2H)-one] | 500 to 1000 |
| Cc1c(OCC2CC2)cccc1C1CCc2c(cnn(-c3ncccn3)c2=O)C1 (stereo not shown) [Example 102, 6-(3-(cyclopropylmethoxy)-2-methylphenyl)-2-(pyrimidin-2-yl)-5,6,7,8-tetrahydrophthalazin-1(2H)-one] | 500 to 1000 |
| O=c1c2c(cnn1-c1ncccn1)CC(c1cccc(OC3CC3)c1Cl)CC2 (stereo not shown) [Example 91, 6-(2-chloro-3-cyclopropoxyphenyl)-2-(pyrimidin-2-yl)-5,6,7,8-tetrahydrophthalazin-1(2H)-one] | < 500 |
| COc1ccc(C(F)(F)F)c(C2CCc3c(cnn(-c4ncccn4)c3=O)C2)c1 (stereo not shown) [Example 73, 6-(5-methoxy-2-(trifluoromethyl)phenyl)-2-(pyrimidin-2-yl)-5,6,7,8-tetrahydrophthalazin-1(2H)-one] | 1000 to 30000 |
| COc1ccnc(-n2ncc3c(c2=O)CCC(c2ccc(C)cc2C)C3)c1 (stereo not shown) [Example 15, 6-(2,4-dimethylphenyl)-2-(4-methoxypyridin-2-yl)-5,6,7,8-tetrahydrophthalazin-1(2H)-one] | < 500 |
| Cc1ccc(C2CCc3c(cnn(-c4ncc(F)cn4)c3=O)C2)c(C)c1 (stereo not shown) [Example 54, 6-(2,4-dimethylphenyl)-2-(5-fluoropyrimidin-2-yl)-5,6,7,8-tetrahydrophthalazin-1(2H)-one] | < 500 |
| COc1nc(-n2ncc3c(c2=O)CCC(c2ccc(C)cc2C)C3)ncc1C (stereo not shown) [Example 56, 6-(2,4-dimethylphenyl)-2-(4-methoxy-5-methylpyrimidin-2-yl)-5,6,7,8-tetrahydrophthalazin-1(2H)-one] | < 500 |
| Cc1ccc(C2CCc3c(cnn(-c4ncc(Cl)cn4)c3=O)C2)c(C)c1 (stereo not shown) [Example 51, 2-(5-chloropyrimidin-2-yl)-6-(2,4-dimethylphenyl)-5,6,7,8-tetrahydrophthalazin-1(2H)-one] | < 500 |
| COc1cc(C)ccc1C1CCc2c(cnn(-c3ncccn3)c2=O)C1 (stereo not shown) [Example 70, 6-(2-methoxy-4-methylphenyl)-2-(pyrimidin-2-yl)-5,6,7,8-tetrahydrophthalazin-1(2H)-one] | 500 to 1000 |
| COc1ccc(C)c(C2CCc3c(cnn(-c4ncc(C5CC5)cn4)c3=O)C2)c1 (stereo not shown) [Example 107, 2-(5-cyclopropylpyrimidin-2-yl)-6-(5-methoxy-2-methylphenyl)-5,6,7,8-tetrahydrophthalazin-1(2H)-one] | 500 to 1000 |

Next, values leading:

| IC50 [nM] | SMILES |
| --- | --- |
| < 500 | COCCOc1cnc(-n2ncc3c(c2=O)CCC(c2cccc(OC)c2C)C3)nc1 (stereo not shown) [Example 118, 6-(3-methoxy-2-methylphenyl)-2-(5-(2-methoxyethoxy)pyrimidin-2-yl)-5,6,7,8-tetrahydrophthalazin-1(2H)-one] |
| 1000 to 30000 | COCCOc1cccc(C2CCc3c(cnn(-c4ncccn4)c3=O)C2)c1C (stereo not shown) [Example 105, 6-(3-(2-methoxyethoxy)-2-methylphenyl)-2-(pyrimidin-2-yl)-5,6,7,8-tetrahydrophthalazin-1(2H)-one] |
| < 500 | COc1cnc(-n2ncc3c(c2=O)CCC(c2ccc(C)cc2C)C3)nc1 (stereo not shown) [Example 53, 6-(2,4-dimethylphenyl)-2-(5-methoxypyrimidin-2-yl)-5,6,7,8-tetrahydrophthalazin-1(2H)-one] |
| < 500 | Cc1ccc(C2CCc3c(cnn(-c4cccc(C)n4)c3=O)C2)c(C)c1 (stereo not shown) [Example 17, 6-(2,4-dimethylphenyl)-2-(6-methylpyridin-2-yl)-5,6,7,8-tetrahydrophthalazin-1(2H)-one] |
| < 500 | Cc1ccc(C2CCc3c(cnn(-c4ccc(F)cn4)c3=O)C2)c(C)c1 (stereo not shown) [Example 10, 6-(2,4-dimethylphenyl)-2-(5-fluoropyridin-2-yl)-5,6,7,8-tetrahydrophthalazin-1(2H)-one] |
| < 500 | COc1ccc(Cl)c(C2CCc3c(cnn(-c4ncccn4)c3=O)C2)c1 (stereo not shown) [Example 75, 6-(2-chloro-5-methoxyphenyl)-2-(pyrimidin-2-yl)-5,6,7,8-tetrahydrophthalazin-1(2H)-one] |
| 500 to 1000 | COc1c(C)cccc1C1CCc2c(cnn(-c3ccccn3)c2=O)C1 (stereo not shown) [Example 68, 6-(2-methoxy-3-methylphenyl)-2-(pyridin-2-yl)-5,6,7,8-tetrahydrophthalazin-1(2H)-one] |
| < 500 | Cc1ccc(C2CCc3c(cnn(-c4cc(O)ccn4)c3=O)C2)c(C)c1 (stereo not shown) [Example 26, 6-(2,4-dimethylphenyl)-2-(4-hydroxypyridin-2-yl)-5,6,7,8-tetrahydrophthalazin-1(2H)-one] |
| < 500 | COCCCOc1cccc(C2CCc3c(cnn(-c4ncccn4)c3=O)C2)c1C (stereo not shown) [Example 100, 6-(3-(3-methoxypropoxy)-2-methylphenyl)-2-(pyrimidin-2-yl)-5,6,7,8-tetrahydrophthalazin-1(2H)-one] |
| < 500 | Cc1ccc(C2CCc3c(cnn(-c4nccc(C5CC5)n4)c3=O)C2)c(C)c1 (stereo not shown) [Example 37, 2-(4-cyclopropylpyrimidin-2-yl)-6-(2,4-dimethylphenyl)-5,6,7,8-tetrahydrophthalazin-1(2H)-one] |
| < 500 | Cc1ccc(C2CCc3c(cnn(-c4ccc(C#N)cn4)c3=O)C2)c(C)c1 (stereo not shown) [Example 22, 6-(6-(2,4-dimethylphenyl)-1-oxo-5,6,7,8-tetrahydrophthalazin-2(1H)-yl)nicotinonitrile] |
| < 500 | COc1cccc(C2CCc3c(cnn(-c4ncc(C)cn4)c3=O)C2)c1C (stereo not shown) [Example 41, 6-(3-methoxy-2-methylphenyl)-2-(5-methylpyrimidin-2-yl)-5,6,7,8-tetrahydrophthalazin-1(2H)-one] |
| < 500 | Cc1ccc(C2CCc3c(cnn(-c4ncc(N5CCOCC5)cn4)c3=O)C2)c(C)c1 (stereo not shown) [Example 115, 6-(2,4-dimethylphenyl)-2-(5-morpholinopyrimidin-2-yl)-5,6,7,8-tetrahydrophthalazin-1(2H)-one] |
| 1000 to 30000 | Cc1ccc(C2Cc3cnn(-c4ccccn4)c(=O)c3C2)c(C)c1 (stereo not shown) [Example 121, 6-(2,4-dimethylphenyl)-2-(pyridin-2-yl)-2,5,6,7-tetrahydro-1H-cyclopenta[d]-pyridazin-1-one] |
| < 500 | Cc1ccc(C2CCc3c(cnn(-c4cnccn4)c3=O)C2)c(C)c1 (stereo not shown) [Example 30, 6-(2,4-dimethylphenyl)-2-(pyrazin-2-yl)-5,6,7,8-tetrahydrophthalazin-1(2H)-one] |
| 500 to 1000 | O=c1c2c(cnn1-c1ccccn1)CC(c1cccc(C3CC3)c1)CC2 (stereo not shown) [Example 63, 6-(3-cyclopropylphenyl)-2-(pyridin-2-yl)-5,6,7,8-tetrahydrophthalazin-1(2H)-one] |
| 500 to 1000 | Cc1ccc(C)c(C2CCc3c(cnn(-c4ncccn4)c3=O)C2)c1 (stereo not shown) [Example 81, 6-(2,5-dimethylphenyl)-2-(pyrimidin-2-yl)-5,6,7,8-tetrahydrophthalazin-1(2H)-one] |
| < 500 | O=c1c2c(cnn1-c1ncccn1)CC(c1cccc3c1CCN3C1CC1)CC2 (stereo not shown) [Example 92, 6-(1-cyclopropylindolin-4-yl)-2-(pyrimidin-2-yl)-5,6,7,8-tetrahydrophthalazin-1(2H)-one] |
